Measured values from patent publication US9198433B2, “Substituted benzene fungicides” (E I DU PONT DE NEMOURS AND COMPANY, priority 2007, dated 2015).
Where two headings read alike, the source gives them in different places. Marks after values point to notes of the source that are not given here.

Key:
Type in all cases: in vivo
[1] = tested on: Rhizoctonia oryzae; assay: Test I: turf brown patch, preventive spray on creeping bent grass seedlings, disease rating
Description: The test compounds were first dissolved in acetone in an amount equal to 3% of the final volume and then suspended at the desired concentration (in ppm) in acetone and purified water (50/50 mix) containing 250 ppm of the surfactant Trem® 014 (polyhydric alcohol esters). The resulting test suspensions were then used in Tests A-L. Spraying a 200 ppm test suspension to the point of run-off on the test plants was the equivalent of an application rate of 500 g/ha. The test suspension was sprayed to the point of run-off on creeping bent grass seedlings. […] A dash (-) indicates no test results. All results are for 200 ppm except where followed by an “*”, which indicates 40 ppm or “**”, which indicates 50 ppm.

[2] = tested on: Alternaria solani; assay: Test H: tomato early blight, preventive spray on tomato seedlings, disease rating
In short: (§1)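 Tomato seedlings sprayed to run-off, as a preventive treatment, with compound suspended in acetone/water (50/50) containing 250 ppm Trem 014 surfactant; 200 ppm equals 500 g/ha. Disease then rated. Values are at 200 ppm unless marked * (40 ppm) or ** (50 ppm).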

[3] = tested on: Puccinia recondita f. sp. tritici; assay: Test B: wheat leaf rust, preventive spray on wheat seedlings, disease rating
In short: (§2)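 Compounds were dissolved in acetone (3% of final volume), then suspended in 50/50 acetone/water with 250 ppm polyhydric alcohol ester surfactant and sprayed to run-off on wheat seedlings. Unless marked otherwise, values are at 200 ppm (equivalent to 500 g/ha); some are at 40 or 50 ppm.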

[4] = tested on: Septoria tritici; assay: Test D: wheat leaf blotch, preventive spray on wheat seedlings, disease rating
In short: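 Wheat seedlings sprayed to run-off with compound in acetone/water containing 250 ppm Trem 014 (200 ppm ≈ 500 g/ha; some results at 40 or 50 ppm), inoculated next day with Septoria tritici spores. Held 48 h saturated at 24 °C, then 19 days at 20 °C before disease rating.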

[5] = tested on: Erysiphe graminis f. sp. tritici; assay: Test A: wheat powdery mildew, preventive spray on wheat seedlings, disease rating
In short: as §2

[6] = tested on: Septoria nodorum; assay: Test C: wheat glume blotch, preventive spray on wheat seedlings, disease rating
In short: as §2

[7] = tested on: Pythium aphanidermatum; assay: Test L: bluegrass pythium blight, preventive spray on bluegrass seedlings, disease rating
Description: The test compounds were first dissolved in acetone in an amount equal to 3% of the final volume and then suspended at the desired concentration (in ppm) in acetone and purified water (50/50 mix) containing 250 ppm of the surfactant Trem® 014 (polyhydric alcohol esters). The resulting test suspensions were then used in Tests A-L. Spraying a 200 ppm test suspension to the point of run-off on the test plants was the equivalent of an application rate of 500 g/ha. The test suspension was sprayed to the point of run-off on bluegrass seedlings. […] A dash (-) indicates no test results. All results are for 200 ppm except where followed by an “*”, which indicates 40 ppm or “**”, which indicates 50 ppm.

[8] = tested on: Fusarium graminearum; conditions: 200 ppm; wheat head scab
[9] = tested on: Botrytis cinerea; assay: Test F: tomato Botrytis, preventive spray on tomato seedlings, disease rating
In short: as §1

[10] = tested on: Plasmopara viticola; assay: Test K: grape downy mildew, spray on grape seedlings after inoculation, disease rating
Description: The test compounds were first dissolved in acetone in an amount equal to 3% of the final volume and then suspended at the desired concentration (in ppm) in acetone and purified water (50/50 mix) containing 250 ppm of the surfactant Trem® 014 (polyhydric alcohol esters). The resulting test suspensions were then used in Tests A-L. Spraying a 200 ppm test suspension to the point of run-off on the test plants was the equivalent of an application rate of 500 g/ha. Grape seedlings were inoculated with a spore suspension of Plasmopara viticola (the causal agent of grape downy mildew) and incubated in a saturated atmosphere at 20° C. for 24 h. After a short drying period, the test suspension was sprayed to the point of run-off on the grape seedlings and then moved to a growth chamber at 20° C. for 6 days, after which the test units were placed back into a saturated atmosphere at 20° C. for 24 h. Upon removal, disease ratings were made. […] A dash (-) indicates no test results. All results are for 200 ppm except where followed by an “*”, which indicates 40 ppm or “**”, which indicates 50 ppm.

[11] = tested on: Phytophthora infestans; conditions: tomato late blight

## COC(=O)NOc1cc(-c2cccc(OC(F)(F)F)c2)ccc1Cl [Cmpd 18]
[1]; 200 ppm
  Percentage Disease Control, Test I: 0%
[2]; 200 ppm
  Percentage Disease Control, Test H: 70%
[3]; 40 ppm (*)
  Percentage Disease Control, Test B: 99* %
[4]; 40 ppm (*)
  Percentage Disease Control, Test D: 98* %
[5]; 40 ppm (*)
  Percentage Disease Control, Test A: 100* %
[6]; 40 ppm (*)
  Percentage Disease Control, Test C: 99* %
[7]; 200 ppm
  Percentage Disease Control, Test L: 98%
[8]
  Percentage Disease Control, Test E: 100%
[9]; 200 ppm
  Percentage Disease Control, Test F: 0%
[10]; 200 ppm
  Percentage Disease Control, Test K: 81%
[11]; 200 ppm
  Percentage Disease Control, Test J: 89%

## COC(=O)NCc1cc(-c2ccn(Cc3cccc(C)n3)n2)ccc1Cl [Cmpd 20]
[1]; 200 ppm
  Percentage Disease Control, Test I: 0%
[2]; 200 ppm
  Percentage Disease Control, Test H: 0%
[3]; 200 ppm
  Percentage Disease Control, Test B: 100%
[5]; 200 ppm
  Percentage Disease Control, Test A: 99%
[6]; 200 ppm
  Percentage Disease Control, Test C: 96%
[7]; 200 ppm
  Percentage Disease Control, Test L: 0%
[8]
  Percentage Disease Control, Test E: 72%
[9]; 200 ppm
  Percentage Disease Control, Test F: 0%
[10]; 200 ppm
  Percentage Disease Control, Test K: 0%
[11]; 200 ppm
  Percentage Disease Control, Test J: 0%

## COC(=O)NCc1cc(-c2cc[nH]n2)ccc1Cl [Cmpd 21]
[1]; 200 ppm
  Percentage Disease Control, Test I: 0%
[2]; 200 ppm
  Percentage Disease Control, Test H: 0%
[3]; 200 ppm
  Percentage Disease Control, Test B: 79%
[5]; 200 ppm
  Percentage Disease Control, Test A: 0%
[6]; 200 ppm
  Percentage Disease Control, Test C: 0%
[7]; 200 ppm
  Percentage Disease Control, Test L: 0%
[8]
  Percentage Disease Control, Test E: 0%
[9]; 200 ppm
  Percentage Disease Control, Test F: 0%
[10]; 200 ppm
  Percentage Disease Control, Test K: 0%
[11]; 200 ppm
  Percentage Disease Control, Test J: 0%

## COC(=O)NCc1cc(-c2ccn(CCC(C)C)n2)ccc1Cl [Cmpd 22]
[1]; 200 ppm
  Percentage Disease Control, Test I: 0%
[2]; 200 ppm
  Percentage Disease Control, Test H: 0%
[3]; 40 ppm (*)
  Percentage Disease Control, Test B: 95* %
[4]; 40 ppm (*)
  Percentage Disease Control, Test D: 85* %
[5]; 40 ppm (*)
  Percentage Disease Control, Test A: 99* %
[6]; 200 ppm
  Percentage Disease Control, Test C: 99%
[7]; 40 ppm (*)
  Percentage Disease Control, Test L: 94* %
[8]
  Percentage Disease Control, Test E: 99%
[9]; 200 ppm
  Percentage Disease Control, Test F: 0%
[10]; 200 ppm
  Percentage Disease Control, Test K: 99%
[11]; 200 ppm
  Percentage Disease Control, Test J: 50%

## COC(=O)NCc1cc(-c2ccn(CCC[Si](C)(C)C)n2)ccc1Cl [Cmpd 23]
[1]; 200 ppm
  Percentage Disease Control, Test I: 0%
[2]; 200 ppm
  Percentage Disease Control, Test H: 0%
[3]; 40 ppm (*)
  Percentage Disease Control, Test B: 100* %
[4]; 40 ppm (*)
  Percentage Disease Control, Test D: 98* %
[5]; 40 ppm (*)
  Percentage Disease Control, Test A: 99* %
[6]; 40 ppm (*)
  Percentage Disease Control, Test C: 100* %
[7]; 40 ppm (*)
  Percentage Disease Control, Test L: 93* %
[8]
  Percentage Disease Control, Test E: 99%
[9]; 200 ppm
  Percentage Disease Control, Test F: 0%
[10]; 40 ppm (*)
  Percentage Disease Control, Test K: 99* %
[11]; 200 ppm
  Percentage Disease Control, Test J: 91%

## COC(=O)NCc1cc(-c2ccn(Cc3cnc(Cl)s3)n2)ccc1Cl [Cmpd 25]
[1]; 200 ppm
  Percentage Disease Control, Test I: 0%
[2]; 200 ppm
  Percentage Disease Control, Test H: 76%
[3]; 200 ppm
  Percentage Disease Control, Test B: 96%
[4]; 200 ppm
  Percentage Disease Control, Test D: 96%
[5]; 200 ppm
  Percentage Disease Control, Test A: 91%
[6]; 200 ppm
  Percentage Disease Control, Test C: 78%
[7]; 200 ppm
  Percentage Disease Control, Test L: 0%
[8]
  Percentage Disease Control, Test E: 77%
[9]; 200 ppm
  Percentage Disease Control, Test F: 37%
[10]; 200 ppm
  Percentage Disease Control, Test K: 63%
[11]; 200 ppm
  Percentage Disease Control, Test J: 0%

## COC(=O)NCc1cc(-c2ccn(CCC#N)n2)ccc1Cl [Cmpd 31]
[1]; 40 ppm (*)
  Percentage Disease Control, Test I: 0* %
[2]; 40 ppm (*)
  Percentage Disease Control, Test H: 0* %
[3]; 40 ppm (*)
  Percentage Disease Control, Test B: 0* %
[4]; 40 ppm (*)
  Percentage Disease Control, Test D: 69* %
[5]; 40 ppm (*)
  Percentage Disease Control, Test A: 0* %
[6]; 40 ppm (*)
  Percentage Disease Control, Test C: 0* %
[7]; 40 ppm (*)
  Percentage Disease Control, Test L: 0* %
[9]; 40 ppm (*)
  Percentage Disease Control, Test F: 0* %
[10]; 40 ppm (*)
  Percentage Disease Control, Test K: 20* %
[11]; 40 ppm (*)
  Percentage Disease Control, Test J: 0* %

## COC(=O)NCc1cc(-c2ccn(CCCC#N)n2)ccc1Cl [Cmpd 32]
[1]; 200 ppm
  Percentage Disease Control, Test I: 0%
[2]; 200 ppm
  Percentage Disease Control, Test H: 0%
[3]; 200 ppm
  Percentage Disease Control, Test B: 80%
[4]; 200 ppm
  Percentage Disease Control, Test D: 88%
[5]; 200 ppm
  Percentage Disease Control, Test A: 41%
[6]; 200 ppm
  Percentage Disease Control, Test C: 0%
[7]; 200 ppm
  Percentage Disease Control, Test L: 0%
[9]; 200 ppm
  Percentage Disease Control, Test F: 0%
[10]; 200 ppm
  Percentage Disease Control, Test K: 34%
[11]; 200 ppm
  Percentage Disease Control, Test J: 0%

## COC(=O)NCc1cc(C(C)=NOCC(C)[Si](C)(C)C)ccc1Cl (stereo not drawn) [Compound 2, methyl N-[[2-chloro-5-[1-[[2-(trimethylsilyl)propoxy]imino]ethyl]phenyl]-methyl]carbamate]
[1]; 200 ppm
  Percentage Disease Control, Test I: 0%
[3]; 200 ppm
  Percentage Disease Control, Test B: 100%
[4]; 40 ppm (*)
  Percentage Disease Control, Test D: 91* %
[5]; 200 ppm
  Percentage Disease Control, Test A: 100%
[6]; 200 ppm
  Percentage Disease Control, Test C: 99%
[7]; 200 ppm
  Percentage Disease Control, Test L: 0%
[8]
  Percentage Disease Control, Test E: 100%
[9]; 200 ppm
  Percentage Disease Control, Test F: 0%
[10]; 200 ppm
  Percentage Disease Control, Test K: 70%
[11]; 200 ppm
  Percentage Disease Control, Test J: 0%

## C=C(CON=C(C)c1ccc(Cl)c(CNC(=O)OC)c1)C[Si](C)(C)C [Compound 3]
[1]; 200 ppm
  Percentage Disease Control, Test I: 0%
[3]; 200 ppm
  Percentage Disease Control, Test B: 100%
[4]; 40 ppm (*)
  Percentage Disease Control, Test D: 16* %
[5]; 200 ppm
  Percentage Disease Control, Test A: 98%
[6]; 200 ppm
  Percentage Disease Control, Test C: 99%
[7]; 200 ppm
  Percentage Disease Control, Test L: 0%
[8]
  Percentage Disease Control, Test E: 87%
[9]; 200 ppm
  Percentage Disease Control, Test F: 0%
[10]; 200 ppm
  Percentage Disease Control, Test K: 26%
[11]; 200 ppm
  Percentage Disease Control, Test J: 0%

## C=C[Si](C)(C)CON=C(C)c1ccc(Cl)c(CNC(=O)OC)c1 [Compound 4]
[1]; 200 ppm
  Percentage Disease Control, Test I: 0%
[3]; 200 ppm
  Percentage Disease Control, Test B: 99%
[4]; 40 ppm (*)
  Percentage Disease Control, Test D: 59* %
[5]; 200 ppm
  Percentage Disease Control, Test A: 98%
[6]; 200 ppm
  Percentage Disease Control, Test C: 99%
[7]; 200 ppm
  Percentage Disease Control, Test L: 0%
[8]
  Percentage Disease Control, Test E: 97%
[9]; 200 ppm
  Percentage Disease Control, Test F: 37%
[10]; 200 ppm
  Percentage Disease Control, Test K: 74%
[11]; 200 ppm
  Percentage Disease Control, Test J: 0%
